Data: ChEMBL document CHEMBL4507265 (2021)

What was measured:
[1] = target: Mitotic checkpoint serine/threonine-protein kinase BUB1 (Homo sapiens) (UniProt O43683); conditions: Compound concentration 1000.0 nM
[2] = target: Sigma non-opioid intracellular receptor 1 (Homo sapiens) (UniProt Q99720); experiment: Sigma 1 Eurofins-Panlabs radioligand binding assay; design: ligand concentration 8 nM; conditions: Compound concentration 10.0 uM
hERG (KCNH2) = hERG (KCNH2) (Homo sapiens, UniProt Q12809); experiment: Inhibition of Potassium Channel hERG at 10 µM in the Eurofins-Panlabs radioligand binding assay (Eurofins_assay_265900); design: ligand concentration 1.5 nM, non-specific ligand with concentration Astemizole, incubation time 60 min, incubation temperature 25 °C; conditions: HEK-293 cells that express recombinant human hERG, probe [3H] Astemizole, 1.5 nM, compound concentration 10 uM
Sequence of hERG (KCNH2) (Q12809 whole entry): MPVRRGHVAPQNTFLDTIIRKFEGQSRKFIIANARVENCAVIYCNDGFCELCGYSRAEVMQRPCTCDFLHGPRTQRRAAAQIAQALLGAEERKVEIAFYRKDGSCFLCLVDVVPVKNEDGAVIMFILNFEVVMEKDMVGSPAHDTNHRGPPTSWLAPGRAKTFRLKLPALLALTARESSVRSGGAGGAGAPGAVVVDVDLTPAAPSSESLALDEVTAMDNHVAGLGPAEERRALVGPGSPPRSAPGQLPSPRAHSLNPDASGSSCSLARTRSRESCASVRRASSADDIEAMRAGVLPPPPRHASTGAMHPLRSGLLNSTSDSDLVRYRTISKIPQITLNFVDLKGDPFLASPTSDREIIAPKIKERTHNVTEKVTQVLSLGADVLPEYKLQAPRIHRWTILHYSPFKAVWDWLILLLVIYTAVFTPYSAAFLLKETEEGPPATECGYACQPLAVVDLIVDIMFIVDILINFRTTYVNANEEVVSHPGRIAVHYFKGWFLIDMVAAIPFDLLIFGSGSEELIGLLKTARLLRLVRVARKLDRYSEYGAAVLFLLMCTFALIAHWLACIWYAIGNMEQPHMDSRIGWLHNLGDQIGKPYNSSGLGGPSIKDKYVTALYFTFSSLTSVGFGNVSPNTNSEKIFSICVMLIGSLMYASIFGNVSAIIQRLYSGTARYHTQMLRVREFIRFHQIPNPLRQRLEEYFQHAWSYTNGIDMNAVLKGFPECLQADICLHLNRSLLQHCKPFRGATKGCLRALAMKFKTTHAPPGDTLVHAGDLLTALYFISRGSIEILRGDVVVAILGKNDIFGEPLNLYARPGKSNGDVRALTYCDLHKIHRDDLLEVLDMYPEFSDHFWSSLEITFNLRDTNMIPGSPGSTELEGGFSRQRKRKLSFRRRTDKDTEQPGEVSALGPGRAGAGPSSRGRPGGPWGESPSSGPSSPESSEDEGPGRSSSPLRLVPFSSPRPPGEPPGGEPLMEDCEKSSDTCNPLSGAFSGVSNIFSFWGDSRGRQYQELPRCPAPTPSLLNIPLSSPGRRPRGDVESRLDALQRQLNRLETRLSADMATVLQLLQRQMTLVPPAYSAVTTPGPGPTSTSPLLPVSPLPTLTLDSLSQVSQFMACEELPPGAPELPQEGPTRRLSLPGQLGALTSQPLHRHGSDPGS

[3] = target: T1, 5-hydroxytryptamine receptor 1A (Homo sapiens) (UniProt P08908); conditions: Compound concentration 10.0 uM
T1 sequence (whole entry): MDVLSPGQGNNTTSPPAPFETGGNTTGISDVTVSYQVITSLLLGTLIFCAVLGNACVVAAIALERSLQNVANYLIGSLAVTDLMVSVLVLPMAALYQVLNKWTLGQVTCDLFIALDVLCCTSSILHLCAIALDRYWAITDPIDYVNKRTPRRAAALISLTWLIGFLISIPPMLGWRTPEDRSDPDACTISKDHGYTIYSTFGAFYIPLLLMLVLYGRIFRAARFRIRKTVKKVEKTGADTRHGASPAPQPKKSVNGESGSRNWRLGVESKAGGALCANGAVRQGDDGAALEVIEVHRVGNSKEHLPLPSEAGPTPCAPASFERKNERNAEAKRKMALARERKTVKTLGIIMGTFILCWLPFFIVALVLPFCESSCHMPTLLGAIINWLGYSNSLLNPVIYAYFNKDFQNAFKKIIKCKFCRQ

[4] = target: Sodium-dependent dopamine transporter (Homo sapiens) (UniProt Q01959); conditions: Compound concentration 10.0 uM
[5] = target: T2, Alpha-2A adrenergic receptor (Homo sapiens) (UniProt P08913); conditions: Compound concentration 10.0 uM
T2 sequence (whole entry): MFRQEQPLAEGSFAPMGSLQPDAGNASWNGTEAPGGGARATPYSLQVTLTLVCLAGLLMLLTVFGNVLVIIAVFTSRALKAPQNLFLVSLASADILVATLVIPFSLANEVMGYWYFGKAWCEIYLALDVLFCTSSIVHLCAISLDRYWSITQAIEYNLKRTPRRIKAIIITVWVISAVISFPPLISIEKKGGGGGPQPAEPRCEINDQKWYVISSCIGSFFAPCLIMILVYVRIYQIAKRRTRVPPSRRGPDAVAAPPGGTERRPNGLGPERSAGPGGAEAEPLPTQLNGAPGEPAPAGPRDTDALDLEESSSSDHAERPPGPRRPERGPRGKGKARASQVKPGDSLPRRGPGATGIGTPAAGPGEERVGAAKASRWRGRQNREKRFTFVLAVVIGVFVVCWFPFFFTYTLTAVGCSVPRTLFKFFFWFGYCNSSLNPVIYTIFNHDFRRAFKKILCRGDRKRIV

[6] = target: Neuropeptide Y receptor type 2 (Homo sapiens) (UniProt P49146); experiment: Inhibition of Neuropeptide Y Y2 at 10 µM in the Eurofins-Panlabs radioligand binding assay (Eurofins_assay_257110); conditions: Compound concentration 10.0 uM
[7] = target: D(1A) dopamine receptor (Homo sapiens) (UniProt P21728); conditions: Compound concentration 10.0 uM
[8] = target: Neuropeptide Y receptor type 1 (Homo sapiens) (UniProt P25929); experiment: Inhibition of Neuropeptide Y Y1 at 10 µM in the Eurofins-Panlabs radioligand binding assay (Eurofins_assay_257010); conditions: Compound concentration 10.0 uM
Sequence of Neuropeptide Y receptor type 1 (Homo sapiens) (P25929 whole entry): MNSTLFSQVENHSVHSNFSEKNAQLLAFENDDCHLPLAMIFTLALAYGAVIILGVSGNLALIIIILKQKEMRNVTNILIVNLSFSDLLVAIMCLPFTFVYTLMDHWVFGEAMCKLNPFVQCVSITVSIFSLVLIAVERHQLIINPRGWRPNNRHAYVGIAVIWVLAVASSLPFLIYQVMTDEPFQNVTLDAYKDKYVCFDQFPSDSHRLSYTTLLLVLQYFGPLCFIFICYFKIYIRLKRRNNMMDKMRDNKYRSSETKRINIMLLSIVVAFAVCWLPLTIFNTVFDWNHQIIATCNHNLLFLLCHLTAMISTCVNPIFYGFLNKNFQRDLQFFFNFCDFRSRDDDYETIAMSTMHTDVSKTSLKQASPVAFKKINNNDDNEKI

Oryctolagus cuniculus = species: Oryctolagus cuniculus; experiment: Inhibition of Purinergic P2X at 10 µM in the Eurofins-Panlabs radioligand binding assay (Eurofins_assay_268700); assay type: protein assay; conditions: Compound concentration 10.0 uM
[9] = target: Adenosine receptor A3 (Homo sapiens) (UniProt P0DMS8); conditions: Compound concentration 10.0 uM
Mus musculus = species: Mus musculus; experiment: Inhibition of Phorbol Ester at 10 µM in the Eurofins-Panlabs radioligand binding assay (Eurofins_assay_264500); design: ligand concentration 3 nM; conditions: Compound concentration 10.0 uM
[10] = target: Estrogen receptor (Homo sapiens) (UniProt P03372); conditions: Compound concentration 10.0 uM
Sequence of Estrogen receptor (Homo sapiens) (P03372 whole entry): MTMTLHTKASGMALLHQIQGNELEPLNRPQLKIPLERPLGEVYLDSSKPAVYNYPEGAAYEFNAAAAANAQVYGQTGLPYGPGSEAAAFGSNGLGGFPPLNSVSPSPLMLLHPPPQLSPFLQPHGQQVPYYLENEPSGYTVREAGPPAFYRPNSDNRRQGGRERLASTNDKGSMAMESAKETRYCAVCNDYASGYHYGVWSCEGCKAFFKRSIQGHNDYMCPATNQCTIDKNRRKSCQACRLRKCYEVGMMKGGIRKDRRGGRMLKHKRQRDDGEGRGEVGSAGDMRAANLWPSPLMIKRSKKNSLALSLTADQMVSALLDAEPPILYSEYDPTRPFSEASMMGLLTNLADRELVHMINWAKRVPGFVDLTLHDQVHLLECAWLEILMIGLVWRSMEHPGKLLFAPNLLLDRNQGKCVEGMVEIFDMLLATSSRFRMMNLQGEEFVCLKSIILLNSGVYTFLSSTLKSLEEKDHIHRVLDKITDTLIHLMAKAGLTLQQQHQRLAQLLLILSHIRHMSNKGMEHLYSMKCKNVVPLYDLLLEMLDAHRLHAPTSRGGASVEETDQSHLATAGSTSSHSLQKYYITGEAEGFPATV

[11] = target: Mu-type opioid receptor (Homo sapiens) (UniProt P35372); conditions: Compound concentration 10.0 uM
Sequence of Mu-type opioid receptor (Homo sapiens) (P35372 whole entry): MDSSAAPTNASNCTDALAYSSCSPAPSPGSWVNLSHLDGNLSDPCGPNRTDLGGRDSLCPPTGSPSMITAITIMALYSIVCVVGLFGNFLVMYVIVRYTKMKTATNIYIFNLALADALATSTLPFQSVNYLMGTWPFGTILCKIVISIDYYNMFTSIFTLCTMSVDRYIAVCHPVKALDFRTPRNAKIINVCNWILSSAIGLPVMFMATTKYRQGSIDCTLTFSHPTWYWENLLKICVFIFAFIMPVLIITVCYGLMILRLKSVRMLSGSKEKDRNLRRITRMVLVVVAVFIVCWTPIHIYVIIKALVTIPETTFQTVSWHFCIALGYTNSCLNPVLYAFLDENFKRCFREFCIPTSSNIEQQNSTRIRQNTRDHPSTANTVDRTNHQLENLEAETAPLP

[12] = target: GABA-A receptor; anion channel (Rattus norvegicus) (UniProt O09028+P15431+P18506+P18508+P19969+P20236+P23574+P23576+P28471+P28473+P30191+P62813+P63079+P63138+Q91ZM7+Q9ES14); conditions: Compound concentration 10.0 uM
Rattus norvegicus [13] = species: Rattus norvegicus; experiment: Inhibition of Rolipram at 10 µM in the Eurofins-Panlabs radioligand binding assay (Eurofins_assay_268811); assay type: protein assay; design: ligand concentration 1.8 nM; conditions: Compound concentration 10.0 uM
[14] = target: Adenosine receptor A1 (Homo sapiens) (UniProt P30542); conditions: Compound concentration 10.0 uM
Sequence of Adenosine receptor A1 (Homo sapiens) (P30542 whole entry): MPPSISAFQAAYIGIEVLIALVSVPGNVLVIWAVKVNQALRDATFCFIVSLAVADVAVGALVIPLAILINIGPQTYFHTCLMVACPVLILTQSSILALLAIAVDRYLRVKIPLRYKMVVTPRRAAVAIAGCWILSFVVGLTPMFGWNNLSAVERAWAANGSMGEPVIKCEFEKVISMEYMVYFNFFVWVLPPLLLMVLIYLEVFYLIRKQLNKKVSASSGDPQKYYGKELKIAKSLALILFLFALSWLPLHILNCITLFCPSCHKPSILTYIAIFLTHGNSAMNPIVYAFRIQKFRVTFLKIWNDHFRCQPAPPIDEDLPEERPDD

[15] = target: Kappa-type opioid receptor (Homo sapiens) (UniProt P41145); conditions: Compound concentration 10.0 uM
Sequence of Kappa-type opioid receptor (Homo sapiens) (P41145 whole entry): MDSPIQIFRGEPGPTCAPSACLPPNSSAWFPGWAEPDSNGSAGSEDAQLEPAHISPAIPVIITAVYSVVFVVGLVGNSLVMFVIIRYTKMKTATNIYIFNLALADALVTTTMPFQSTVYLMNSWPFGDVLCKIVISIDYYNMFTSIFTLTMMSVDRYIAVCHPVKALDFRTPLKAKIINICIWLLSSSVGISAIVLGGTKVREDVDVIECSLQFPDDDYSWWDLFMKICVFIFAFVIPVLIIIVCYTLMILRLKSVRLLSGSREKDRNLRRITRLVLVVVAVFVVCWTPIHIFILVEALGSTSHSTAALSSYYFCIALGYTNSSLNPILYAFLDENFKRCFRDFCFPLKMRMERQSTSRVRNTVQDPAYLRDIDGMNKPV

[16] = target: Glucocorticoid receptor (Homo sapiens) (UniProt P04150); experiment: Glucocorticoid Eurofins-Panlabs radioligand binding assay; conditions: Compound concentration 10.0 uM
Rattus norvegicus [17] = species: Rattus norvegicus; experiment: Inhibition of Imidazoline I2, Central at 10 µM in the Eurofins-Panlabs radioligand binding assay (Eurofins_assay_241000); design: ligand concentration 2 nM; conditions: Compound concentration 10.0 uM
[18] = target: Cannabinoid receptor 1 (Homo sapiens) (UniProt P21554); conditions: Compound concentration 10.0 uM
Sequence of Cannabinoid receptor 1 (Homo sapiens) (P21554 whole entry): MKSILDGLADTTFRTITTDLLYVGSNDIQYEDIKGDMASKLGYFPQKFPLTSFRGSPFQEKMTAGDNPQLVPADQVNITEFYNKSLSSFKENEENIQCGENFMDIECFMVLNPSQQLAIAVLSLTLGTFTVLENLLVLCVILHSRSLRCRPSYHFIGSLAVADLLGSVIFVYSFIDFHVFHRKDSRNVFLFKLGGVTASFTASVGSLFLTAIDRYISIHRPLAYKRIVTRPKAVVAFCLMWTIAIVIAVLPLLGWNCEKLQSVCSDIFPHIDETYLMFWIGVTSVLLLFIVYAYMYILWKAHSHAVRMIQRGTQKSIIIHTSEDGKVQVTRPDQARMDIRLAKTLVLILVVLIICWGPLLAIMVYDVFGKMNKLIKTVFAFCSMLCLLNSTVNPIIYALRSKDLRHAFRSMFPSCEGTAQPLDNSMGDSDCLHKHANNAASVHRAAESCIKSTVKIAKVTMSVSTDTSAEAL

[19] = target: Purinergic P2Y (Rattus norvegicus) (UniProt O35811+Q9EPX4+P49651+Q63371+P41232+O35881+Q6GUG4); conditions: Compound concentration 10.0 uM
Rattus norvegicus [20] = species: Rattus norvegicus; experiment: Inhibition of Glutamate, NMDA, Phencyclidine at 10 µM in the Eurofins-Panlabs radioligand binding assay (Eurofins_assay_233000); assay type: protein-complex assay; conditions: Compound concentration 10.0 uM
Rattus norvegicus [21] = species: Rattus norvegicus; experiment: Testosterone Eurofins-Panlabs radioligand binding assay; design: ligand concentration 1.5 nM; conditions: Compound concentration 10.0 uM
[22] = target: Histamine H1 receptor (Homo sapiens) (UniProt P35367); conditions: Compound concentration 10.0 uM

Sequence of Mitotic checkpoint serine/threonine-protein kinase BUB1 (Homo sapiens) (O43683 whole entry, looked up): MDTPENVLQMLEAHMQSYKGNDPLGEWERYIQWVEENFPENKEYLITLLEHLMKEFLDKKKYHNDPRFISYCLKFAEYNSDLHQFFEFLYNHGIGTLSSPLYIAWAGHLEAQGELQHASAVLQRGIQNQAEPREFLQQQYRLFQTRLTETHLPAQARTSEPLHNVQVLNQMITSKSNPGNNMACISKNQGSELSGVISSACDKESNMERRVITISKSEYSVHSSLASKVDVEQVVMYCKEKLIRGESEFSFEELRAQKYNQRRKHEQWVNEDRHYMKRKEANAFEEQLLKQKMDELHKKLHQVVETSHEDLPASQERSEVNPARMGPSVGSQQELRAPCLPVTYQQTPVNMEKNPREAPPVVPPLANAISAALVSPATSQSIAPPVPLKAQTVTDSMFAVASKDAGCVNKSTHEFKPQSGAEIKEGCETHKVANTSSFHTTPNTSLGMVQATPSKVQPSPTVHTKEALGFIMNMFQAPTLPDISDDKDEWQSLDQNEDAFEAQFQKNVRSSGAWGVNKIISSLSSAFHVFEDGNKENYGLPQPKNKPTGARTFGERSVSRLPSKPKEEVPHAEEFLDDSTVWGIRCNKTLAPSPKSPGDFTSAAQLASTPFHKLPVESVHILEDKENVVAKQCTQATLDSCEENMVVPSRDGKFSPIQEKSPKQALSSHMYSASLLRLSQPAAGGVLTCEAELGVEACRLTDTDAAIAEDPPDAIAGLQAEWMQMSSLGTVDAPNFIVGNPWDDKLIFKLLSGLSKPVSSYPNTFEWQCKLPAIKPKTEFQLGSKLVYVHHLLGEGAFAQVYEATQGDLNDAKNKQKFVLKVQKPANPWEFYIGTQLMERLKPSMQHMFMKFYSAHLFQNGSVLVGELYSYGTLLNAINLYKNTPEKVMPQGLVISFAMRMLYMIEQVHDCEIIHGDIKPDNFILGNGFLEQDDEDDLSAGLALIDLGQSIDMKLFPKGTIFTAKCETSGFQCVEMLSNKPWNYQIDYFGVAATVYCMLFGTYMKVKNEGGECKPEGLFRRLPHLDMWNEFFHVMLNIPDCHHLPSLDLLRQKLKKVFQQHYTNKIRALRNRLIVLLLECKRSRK
Sequence of Sigma non-opioid intracellular receptor 1 (Homo sapiens) (Q99720 whole entry): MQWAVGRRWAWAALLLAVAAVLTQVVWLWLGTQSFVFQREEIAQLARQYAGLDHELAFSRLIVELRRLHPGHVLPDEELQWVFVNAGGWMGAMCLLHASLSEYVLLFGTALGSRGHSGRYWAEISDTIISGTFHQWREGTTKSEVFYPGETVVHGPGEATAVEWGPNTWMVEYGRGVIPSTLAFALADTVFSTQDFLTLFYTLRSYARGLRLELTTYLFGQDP

## NS(=O)(=O)c1cc(NC(=O)C2(c3ccccc3Cl)CC2)ccc1Oc1cccc(Cl)c1 [BAY-207]
[1]
  residual activity: 95%

## NS(=O)(=O)c1cc(NC(=O)Cc2ccccc2)ccc1Oc1cccc(Cl)c1 [BAY-1797]
[2]
  inhibition: 19%
hERG (KCNH2)
  inhibition at 60 min, 10 µM: 8% (not active)
[3]
  inhibition: 7%
[4]
  inhibition: 37%
[5]
  inhibition: 26%
[6]
  inhibition: 8%
[7]
  inhibition: 11%
[8]
  inhibition: 9%
Oryctolagus cuniculus
  inhibition: 5%
[9]
  inhibition: 47%
Mus musculus
  inhibition: 4%
[10]
  inhibition: 5%
[11]
  inhibition: 9%
[12]
  inhibition: 0%
Rattus norvegicus [13]
  inhibition: 8%
[14]
  inhibition: 35%
[15]
  inhibition: 10%
[16]
  inhibition: 20%
Rattus norvegicus [17]
  inhibition: 10%
[18]
  inhibition: 44%
[19]
  inhibition: 14%
Rattus norvegicus [20]
  inhibition: -1%
Rattus norvegicus [21]
  inhibition: 17%
[22]
  inhibition: 15%
